Data published in US12583866B2, “Pyrido[2,3-b][1,4]oxazines or tetrahydropyrido[2,3-b][1,4]oxazepines as IAP antagonists” (BEIGENE, LTD., priority 2020, dated 2026).

Experiments:
[1] = biological target: T1, recombinant human cIAP2-BIR3 protein (Homo sapiens, UniProt Q13489); assay: Recombinant human c-IAP2-BIR3 biochemical assay (HTRF, peptide displacement); settings: 3.7 nM cIAP2-BIR3, 3.7 nM AbuRPF-K(5-Fam)-NH2 peptide, read-out: Protein binding IC50 (nM) c-IAP2
T1 construct: recombinant human cIAP2-BIR3 protein; purchased Reaction biology APT-11-372
How it was run: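 HTRF peptide-displacement readout (ex337, em520/490 ratio) after sequential 1 h room-temperature steps: compound with 3.7 nM protein, then 3.7 nM 5-Fam-labelled AbuRPF peptide, then Tb-cryptate anti-6His antibody. Buffer pH 7.5 HEPES with NaCl, Tween-20, DTT; 10-point 4-fold dilutions from 10 uM; four-parameter logistic IC50.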

[2] = biological target: T2, recombinant human cIAP1-BIR3 protein (Homo sapiens, UniProt Q13490); assay: Recombinant human c-IAP1-BIR3 biochemical assay (HTRF, peptide displacement); settings: 1.2 nM cIAP1-BIR3, 3 nM AbuRPF-K(5-Fam)-NH2 peptide, read-out: Protein binding IC50 (nM) c-IAP1
T2 construct: recombinant human cIAP1-BIR3 protein; purchased Reaction biology APT-11-370
How it was run: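 HTRF peptide displacement: after 1 h compound pre-incubation (max 10 uM, 4-fold dilutions, 10 points) with 1.2 nM protein in HEPES pH 7.5 buffer, 3 nM 5-Fam-labelled AbuRPF-K peptide and Tb-anti-6His were each added for 1 h at room temperature. Inhibition taken from 520/490 nm ratio, fitted four-parameter logistic for IC50.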

[3] = biological target: T3, recombinant human XIAP-BIR3 protein (Homo sapiens, UniProt P98170); assay: Recombinant human XIAP-BIR3 biochemical assay (HTRF, peptide displacement); settings: 3.7 nM XIAP-BIR3, 7.6 nM AbuRPF-K(5-Fam)-NH2 peptide, read-out: Protein binding IC50 (nM) XIAP
T3 construct: recombinant human XIAP-BIR3 protein; purchased Reaction biology APT-11-374
How it was run: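 HTRF peptide displacement with 7.6 nM 5-Fam-labelled AbuRPF peptide, anti-6His Tb donor and 3.7 nM recombinant XIAP-BIR3. Protein and compound (10-point, 4-fold from 10 µM) were preincubated 1 h RT in HEPES pH 7.5 buffer before each addition, each 1 h. IC50 by four-parameter fit of the 520/490 nm ratio.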

T2 sequence (Q13490 253-363 limits assumed): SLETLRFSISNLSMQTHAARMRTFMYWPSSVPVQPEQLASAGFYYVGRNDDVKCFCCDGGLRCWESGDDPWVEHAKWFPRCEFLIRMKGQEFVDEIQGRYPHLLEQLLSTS
T3 sequence (P98170 241-356 limits assumed): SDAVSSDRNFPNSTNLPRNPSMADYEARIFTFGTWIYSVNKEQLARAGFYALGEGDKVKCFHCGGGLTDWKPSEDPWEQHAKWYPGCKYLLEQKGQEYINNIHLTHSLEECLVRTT
T1 sequence (Q13489 238-349 limits assumed): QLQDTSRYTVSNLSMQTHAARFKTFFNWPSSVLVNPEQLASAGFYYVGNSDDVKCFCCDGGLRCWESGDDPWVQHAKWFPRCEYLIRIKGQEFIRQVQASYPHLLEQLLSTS

Row | SMILES | IC50 [1] | IC50 [2] | IC50 [3]
1 | C[C@@H]1CN(CC(=O)N2c3cc(Cc4ccc(F)cc4)cnc3OC[C@H]2C)[C@@H](CN2CCOC[C@H]2C)CN1 [Compound 19B, 1-((R)-7-(4-fluorobenzyl)-2-methyl-2,3-dihydro-1H-pyrido[2,3-b][1,4]oxazin-1-yl)-2-((2R,5R)-5-methyl-2-(((R)-3-methylmorpholino)methyl)piperazin-1-yl)ethan-1-one] | 27 nM | 6.4 nM | 33 nM
2 | CC(C)OC[C@H]1COc2ncc(Cc3ccc(F)cc3)cc2N1C(=O)CN1C[C@@H](C)NC[C@@H]1CN1CCOC[C@H]1C [Compound 38, 1-((S)-7-(4-fluorobenzyl)-2-(isopropoxymethyl)-2,3-dihydro-1H-pyrido[2,3-b][1,4]oxazin-1-yl)-2-((2R,5R)-5-methyl-2-(((R)-3-methylmorpholino)methyl)piperazin-1-yl)ethan-1-one] | 0.83 nM | 0.26 nM | 49 nM
3 | C[C@@H]1CN(CC(=O)N2c3cc(Cc4ccc(F)cc4)c(CO)nc3OC[C@@H]2C)[C@@H](CN2CCOCC23CCC3)CN1 [Compound 56, 2-((2R,5R)-2-((8-oxa-5-azaspiro[3.5]nonan-5-yl)methyl)-5-methylpiperazin-1-yl)-1-((S)-7-(4-fluorobenzyl)-6-(hydroxymethyl)-2-methyl-2,3-dihydro-1H-pyrido[2,3-b][1,4]oxazin-1-yl)ethan-1-one] | 2.2 nM | 1 nM | 30 nM
4 | C[C@@H]1CN(CC(=O)N2c3cc(Cc4ccc(F)cc4)c(CO)nc3OC[C@@H]2C)[C@@H](CN2C[C@@H]3C[C@H]2CO3)CN1 [Example 85, 2-((2R,5R)-2-(((1S,4S)-2-oxa-5-azabicyclo[2.2.1]heptan-5-yl)methyl)-5-methylpiperazin-1-yl)-1-((S)-7-(4-fluorobenzyl)-6-(hydroxymethyl)-2-methyl-2,3-dihydro-1H-pyrido[2,3-b][1,4]oxazin-1-yl)ethan-1-one] | 0.72 nM | 0.68 nM | 20 nM
5 | CCS(=O)(=O)Nc1nc2c(cc1Cc1ccc(F)cc1)N(C(=O)CN1C[C@@H](C)NC[C@@H]1CN1[C@H](C)COC[C@H]1C)[C@@H](C)CO2 [Compound 122] | 0.29 nM | 0.19 nM | 2.9 nM
6 | C[C@@H]1CN(CC(=O)N2c3cc(Cc4ccc(F)cc4)c(CO)nc3OC[C@@H]2C)[C@@H](CN2CCOC[C@H]2C(F)F)CN1 [Compound 55] | 1.9 nM | 1.3 nM | 34 nM
